{
  "source": "patent US11129870B2",
  "about": "“Compositions and methods for uncoupling TrkB receptor from PLC gamma 1 for the treatment of epilepsy and anxiety-like disorder” (DUKE UNIVERSITY, priority 2010, dated 2021)",
  "key": {"[1]": {"test_system": "Akt", "test": "p-Akt in hippocampal lysates of naive mice after i.v. peptide", "format": "in vivo, mouse", "details": "10 mg/kg i.v., 3 hr", "method": "Animals were anesthetized with pentobarbital (200 mg/kg i.p.) and decapitated, and the head was quickly immersed in liquid nitrogen for 4 s to rapidly cool the brain. The hippocampi were rapidly dissected on ice and homogenized in RIPA buffer, incubated on ice for 15 min, and centrifuged at 200,000×g for 10 min at 4° C. The supernatant was collected and stored at −80° C. until further analysis. TrkB was immunoprecipitated using TrkB antibody (1:1000, Millipore) and the lysates were incubated with 100 μL of protein A-Sepharose beads (Roche) overnight in 4° C. The beads/immune complexes were pelleted in a microcentrifuge and then resuspended in RIPA buffer and this procedure was repeated two additional times before adding 2×SDS PAGE sample buffer and boiled. After SDS PAGE, the gels were probed with TrkB and PLCγ1 antibody (1:1000, Cell signaling). Western blotting was conducted as previously described (He et al., 2010). Cell lysate and hippocampal homogenate were probed with p-PLCγ1 (pY783), PLCγ1, p-Akt (pS473), Akt, p-ERK (p44/p42) and ERK (1:1000, Cell signaling). The immunoreactivity of individual bands on western blots was measured by ImageJ software (National Institutes of Health) and normalized to PLCγ1, Akt or ERK contents. Equivalent protein loading among samples was monitored by β-actin (1:10000; Sigma) levels. […]"}, "[2]": {"test_system": "PLCγ1", "test": "SE-induced activation of PLCγ1 in hippocampus, peptide given i.v. after SE", "format": "in vivo, mouse", "details": "6 hr later", "method": "Surgery and microinfusion studies provided in Examples 10-14 were performed as described here. Surgery and microinfusion of KA into right amygdala of adult mice was performed as previously described (Liu, G. et al., (2013) Neuron 79:31-38). Briefly, mice were anesthetized with pentobarbital (60 mg/kg, intraperitoneally [i.p.]) and placed in a stereotaxic frame. A guide cannula was stereotactically placed above the right amygdala (coordinates from bregma: AP=−1.2 mm; ML=3.0 mm). A bipolar electrode was placed in the left dorsal hippocampus (coordinates from bregma: AP=−2.0 mm; ML=−1.6 mm; DV=−1.5 mm). A ground electrode connected to a screw was placed in the skull above the cerebellum. After a postoperative recovery period of 7 days, the animal was gently restrained and an infusion cannula was inserted into the right amygdala through the guide cannula at the depth of 3.7 mm below dura. […]\nAnimals were anesthetized with pentobarbital (200 mg/kg i.p.) and decapitated, and the head was quickly immersed in liquid nitrogen for 4 s to rapidly cool the brain. […] The immunoreactivity of individual bands on western blots was measured by ImageJ software (National Institutes of Health) and normalized to PLCγ1, Akt or ERK contents. Equivalent protein loading among samples was monitored by β-actin (1:10000; Sigma) levels. […]"}},
  "note": "Where no end group is shown, it is not given here. [ ]: non-standard residue; d: D form. pY = N[C@@H](Cc1ccc(OP(=O)(O)O)cc1)C(=O)O",
  "data": [
    {"substance": "YGRKKRRQRRR-LQNLAKASPVpYLDI (YGRKKRRQRRRLQNLAKASPV[pY]LDI) [pY816]", "values": [
      {"measurement": "p-Akt in hippocampal lysates", "setting": "[1]", "value": "neither p-Akt nor p-ERK was affected"},
      {"measurement": "inhibition of SE-induced activation of PLCγ1 (p-PLCγ1 pY783 to PLCγ1 ratio)", "setting": "[2]; 10 mg/kg i.v. immediately after diazepam", "value": "~75", "unit": "%"},
      {"measurement": "inhibition of SE-induced activation of PLCγ1 (p-PLCγ1 pY783 to PLCγ1 ratio)", "setting": "[2]; 20 mg/kg i.v. immediately after diazepam", "value": "~75", "unit": "%"}
    ]}
  ]
}
